Measurements from paper PMC11702208 (RSC Advances, 2025).
Where “and” joins values, the source holds several entries; their conditions need not be identical. Identical values can stand only once. Like-named read-outs stand apart in the source and are kept apart here.

How the values were obtained:
IGROV1 = test: NCI cytotoxicity screen; format: cell-based, human
[1] = system: Breast cancer subpanel tumor cell lines; test: NCI cytotoxicity screen, subpanel; format: cell-based, human
ACHN = test: NCI cytotoxicity screen; format: cell-based, human
U251 = test: NCI cytotoxicity screen; format: cell-based, human; conditions: U-251
SK-OV-3 = test: NCI cytotoxicity screen; format: cell-based, human
SNB-75 = test: NCI cytotoxicity screen; format: cell-based, human
HL-60(TB) = test: cells; conditions: Homo sapiens
NCI-H522 = test: NCI cytotoxicity screen; format: cell-based, human
HCT-15 = test: NCI cytotoxicity screen; format: cell-based, human
HCT-116 = test: NCI cytotoxicity screen; format: cell-based, human
SK-MEL-28 = test: NCI cytotoxicity screen; format: cell-based, human
EKVX = test: NCI cytotoxicity screen; format: cell-based, human
KM12 = test: NCI cytotoxicity screen; format: cell-based, human
BT-549 = test: NCI cytotoxicity screen; format: cell-based, human
NCI/ADR-RES = test: NCI cytotoxicity screen; format: cell-based, human
OVCAR-4 = test: NCI cytotoxicity screen; format: cell-based, human
HOP-92 = test: NCI cytotoxicity screen; format: cell-based, human; conditions: 10.0 μM one dose
MOLT-4 = test: NCI cytotoxicity screen; format: cell-based, human
LOX IMVI = test: NCI cytotoxicity screen; format: cell-based, human
T-47D = test: NCI cytotoxicity screen; format: cell-based, human
MALME-3M = test: NCI cytotoxicity screen; format: cell-based, human
SK-MEL-5 = test: NCI cytotoxicity screen; format: cell-based, human
NCI-H322M = test: NCI cytotoxicity screen; format: cell-based, human
SF-295 = test: NCI cytotoxicity screen; format: cell-based, human
SW-620 = test: NCI cytotoxicity screen; format: cell-based, human
UACC-62 = test: NCI cytotoxicity screen; format: cell-based, human
NCI-H460 = test: NCI cytotoxicity screen; format: cell-based, human
[2] = system: Prostate cancer subpanel tumor cell lines; test: NCI cytotoxicity screen, subpanel; format: cell-based, human
[3] = system: Melanoma subpanel tumor cell lines; test: NCI cytotoxicity screen, subpanel; format: cell-based, human
SNB-19 = test: NCI cytotoxicity screen; format: cell-based, human
UO-31 = test: NCI cytotoxicity screen; format: cell-based, human
NCI-H23 = test: NCI cytotoxicity screen; format: cell-based, human
[4] = system: Colon cancer subpanel tumor cell lines; test: NCI cytotoxicity screen, subpanel; format: cell-based, human
K-562 = test: cells; conditions: Homo sapiens, K562
[5] = system: Leukemia subpanel tumor cell lines; test: NCI cytotoxicity screen, subpanel; format: cell-based, human
MDA-MB-435 = test: NCI cytotoxicity screen; format: cell-based, human
OVCAR-3 = test: NCI cytotoxicity screen; format: cell-based, human
[6] = system: Ovarian cancer subpanel tumor cell lines; test: NCI cytotoxicity screen, subpanel; format: cell-based, human
MDA-MB-468 = test: NCI cytotoxicity screen; format: cell-based, human
MDA-MB-231/ATCC = test: NCI cytotoxicity screen; format: cell-based, human
[7] = system: CNS cancer subpanel tumor cell lines; test: NCI cytotoxicity screen, subpanel; format: cell-based, human
UACC-257 = test: NCI cytotoxicity screen; format: cell-based, human
59 cancer cell lines = test: NCI cytotoxicity screen, full panel; format: cell-based, human
[8] = subpanel value, Prostate cancer

CCN(CC)c1ccc(C=NNC(=O)CSc2nc3ccccc3c(=O)n2Cc2ccc(S(N)(=O)=O)cc2)c(O)c1 [Compound 5, 4-((2-((2-(2-(4-(Diethylamino)-2-hydroxybenzylidene)hydrazineyl)-2-oxoethyl)thio)-4-oxoquinazolin-3(4H)-yl)methyl)benzenesulfonamide]
GI % (IGROV1; 10.0 μM one dose, IGROV1): 74% | GI50 (IGROV1; Homo sapiens, IGROV-1): 785 nM | CC50 ([1]; Homo sapiens, read-out: LC50): > 100000 nM | GI50 ([1]; Homo sapiens, subpanel value, Breast cancer): 1200 nM | GI50 ([1]; subpanel value, Breast cancer): 1230 nM | TGI ([1]; subpanel value, Breast cancer): 84170 nM | GI % (ACHN; 10.0 μM one dose): 67% | GI50 (ACHN; Homo sapiens): 1580 nM | GI % (U251; 10.0 μM one dose): 76% | GI50 (U251; Homo sapiens): 510 nM | GI % (SK-OV-3; 10.0 μM one dose): 79% | GI50 (SK-OV-3; Homo sapiens): 1320 nM | GI % (SNB-75; 10.0 μM one dose): 62% | GI50 (SNB-75; Homo sapiens): 2860 nM | GI50 (HL-60(TB)): 412 nM | GI % (NCI-H522; 10.0 μM one dose): 126% | GI50 (NCI-H522; Homo sapiens): 2400 nM | GI % (HCT-15; 10.0 μM one dose): 53% | GI50 (HCT-15; Homo sapiens): 3620 nM | GI % (HCT-116; 10.0 μM one dose): 79% | GI50 (HCT-116; Homo sapiens): 363 nM | GI % (SK-MEL-28; 10.0 μM one dose): 67% | GI50 (SK-MEL-28; Homo sapiens): 1620 nM | GI % (EKVX; 10.0 μM one dose): 65% | GI50 (EKVX; Homo sapiens): 650 nM | GI % (KM12; 10.0 μM one dose, KM-12): 85% | GI50 (KM12; Homo sapiens, KM12): 569 nM | GI % (BT-549; 10.0 μM one dose): 67% | GI50 (BT-549; Homo sapiens): 2680 nM | GI % (NCI/ADR-RES; 10.0 μM one dose): 13% | GI50 (NCI/ADR-RES; Homo sapiens, five-dose): > 100000 nM | GI % (OVCAR-4; 10.0 μM one dose, IGROV-4): 88% | GI50 (OVCAR-4; Homo sapiens, OVCAR-4): 311 nM | GI % (HOP-92): 42% | GI % (MOLT-4; 10.0 μM one dose): 89% | GI50 (MOLT-4; Homo sapiens): 372 nM | GI % (LOX IMVI; 10.0 μM one dose): 99% | GI50 (LOX IMVI; Homo sapiens): 387 nM | GI % (T-47D; 10.0 μM one dose, T-47D): 94% | GI50 (T-47D; Homo sapiens, T47D): 925 nM | GI % (MALME-3M; 10.0 μM one dose, MALME-3M): 69% | GI50 (MALME-3M; Homo sapiens, Malme-3M): 1090 nM | GI % (SK-MEL-5; 10.0 μM one dose): 95% | GI50 (SK-MEL-5; Homo sapiens): 1570 nM | GI % (NCI-H322M; 10.0 μM one dose): 67% | GI50 (NCI-H322M; Homo sapiens): 575 nM | GI % (SF-295; 10.0 μM one dose): 80% | GI50 (SF-295; Homo sapiens): 1470 nM | GI % (SW-620; 10.0 μM one dose): 79% | GI50 (SW-620; Homo sapiens): 949 nM | GI % (UACC-62; 10.0 μM one dose): 94% | GI50 (UACC-62; Homo sapiens): 886 nM | GI % (NCI-H460; 10.0 μM one dose): 94% | GI50 (NCI-H460; Homo sapiens): 424 nM | CC50 ([2]; Homo sapiens, read-out: LC50): > 100000 nM | GI50 ([2]; Homo sapiens, subpanel value, Prostate cancer): 900 nM | GI50 [2, 8]: 886 nM | TGI [2, 8]: c (Compounds showed values > 100 μM) | CC50 ([3]; Homo sapiens, read-out: LC50): > 100000 nM | GI50 ([3]; Homo sapiens, subpanel value, Melanoma): 1500 nM | GI50 ([3]; subpanel value, Melanoma): 1500 nM | TGI ([3]; subpanel value, Melanoma): 59090 nM | GI % (SNB-19; 10.0 μM one dose): 59% | GI50 (SNB-19; Homo sapiens): 2100 nM | GI % (UO-31; 10.0 μM one dose): 54% | GI50 (UO-31; Homo sapiens): 2890 nM | GI % (NCI-H23; 10.0 μM one dose): 61% | GI50 (NCI-H23; Homo sapiens): 1960 nM | CC50 ([4]; Homo sapiens, read-out: LC50): > 100000 nM | GI50 ([4]; Homo sapiens, subpanel value, Colon cancer): 1600 nM | GI50 ([4]; subpanel value, Colon cancer): 1560 nM | TGI ([4]; subpanel value, Colon cancer): c (Compounds showed values > 100 μM) | GI50 (K-562): 592 nM | CC50 ([5]; Homo sapiens, read-out: LC50): > 100000 nM | GI50 ([5]; Homo sapiens, subpanel value, Leukemia): 400 nM | GI50 ([5]; subpanel value, Leukemia): 384 nM | TGI ([5]; subpanel value, Leukemia): 68371 nM | GI % (MDA-MB-435; 10.0 μM one dose): 87% | GI50 (MDA-MB-435; Homo sapiens): 2070 nM | GI % (OVCAR-3; 10.0 μM one dose, IGROV-3): 85% | GI50 (OVCAR-3; Homo sapiens, OVCAR-3): 287 nM | CC50 ([6]; Homo sapiens, read-out: LC50): > 100000 nM | GI50 ([6]; Homo sapiens, subpanel value, Ovarian cancer): 15100 nM | GI50 ([6]; subpanel value, Ovarian cancer): 15100 nM | TGI ([6]; subpanel value, Ovarian cancer): c (Compounds showed values > 100 μM) | GI % (MDA-MB-468; 10.0 μM one dose): 110% | GI50 (MDA-MB-468; Homo sapiens): 524 nM | GI % (MDA-MB-231/ATCC; 10.0 μM one dose, MDA-MB-231/ATCC): 75% | GI50 (MDA-MB-231/ATCC; Homo sapiens, MDA-MB-231): 643 nM | CC50 ([7]; Homo sapiens, read-out: LC50): > 100000 nM | GI50 ([7]; Homo sapiens, subpanel value, CNS cancer): 1500 nM | GI50 ([7]; subpanel value, CNS cancer): 1490 nM | TGI ([7]; subpanel value, CNS cancer): c (Compounds showed values > 100 μM) | GI % (UACC-257; 10.0 μM one dose): 87% | GI50 (UACC-257; Homo sapiens): 3030 nM | MG% (mean growth percent) (59 cancer cell lines; 10.0 μM one dose, 59 cell lines): 23.5% and 23.46% | GI50 (59 cancer cell lines; Homo sapiens, read-out: GI50 MG_MID, full panel mean-graph midpoint): 1000 nM | CC50 (59 cancer cell lines; Homo sapiens, read-out: LC50 MG_MID, full panel mean-graph midpoint): > 100000 nM | TGI MG_MID (59 cancer cell lines; full panel mean-graph midpoint): 89200 nM and 89240 nM | GI50 (59 cancer cell lines; read-out: GI50 MG_MID, full panel mean-graph midpoint): 1100 nM | CC50 (59 cancer cell lines; read-out: LC50 MG_MID, full panel mean-graph midpoint): > 100000 nM
